# Measurements as given in patent publication US8575112B2, “Small peptide modulators of potassium channel trafficking” (University of Houston System, priority 2009, dated 2013).
# What was measured:
# Assay type in all cases: cell-based
# Slo1VEDEC = experiment: Cell-surface biotinylation assay, HEK293T cells expressing Myc-Slo1VEDEC, after peptide delivery; conditions: HEK293T cells expressing Myc-tagged Slo1VEDEC, 1 mg peptide delivered with PULSin, compared to R-PE control
# Protocol: (§1) HEK293T (human embryonic kidney) cells were grown in Dulbecco's modified Eagle's medium (Invitrogen) containing heat-inactivated 10% fetal bovine serum (FBS) and penicillin-streptomycin (Invitrogen) at 37° C. in a 5% CO2 incubator. Cells were transiently transfected for 24 to 48 hours using Lipofectamine 2000 (Invitrogen) in the serum-reduced medium OPTI-MEM, Invitrogen) following the manufacturer's instructions. The immortalized and undifferentiated mouse podocyte cell line was grown in RPMI1640 with 10% FBS supplied with 10 U/mL interferon-g (INF-γ) at 33° C. in a 5% CO2 incubator. Podocytes' differentiation was induced by removing INF-γ and switching to 37° C. in a 5% CO2 incubator for 14 days.
# (§2) Cell-surface biotinylation was carried out by labeling cells with 1 mg/mL EZ-Link Sulfo-NHS-Biotin reagents (Pierce) in PBS (137 mM NaCl, 10 mM Phosphate, 2.7 mM KCl, pH 7.4) at 4 C with gentle shaking for 1.5 hours, which was followed by incubating the labeled cells in the cold PBS containing 100 mM glycine for additional 20 minutes at 4° C. to stop the reaction. […]
# (§3) All samples were loaded and separated on 10% SDS-PAGE. […] Slo1 proteins were detected by primary antibodies, including mouse anti-Myc, mouse anti-HA, rabbit anti-VEDEC, rabbit anti-QEERL, and rabbit anti-Slo1 (APC107, Alomone labs) antibodies, as indicated. […]
# Slo1QEERL = experiment: Cell-surface biotinylation assay, HEK293T cells expressing Myc-Slo1QEERL, after peptide delivery; conditions: HEK293T cells expressing Myc-tagged Slo1QEERL by itself; 1 mg peptide delivered with PULSin; compared to R-PE control
# Protocol: as §1, §2, §3
# [1] = system: endogenous Ca2+-activated K+ channels (BKCa) in podocytes; experiment: Whole-cell recordings from differentiated mouse podocytes after peptide delivery
# Protocol: FIG. 7A depicts whole cell recording analyses are carried out in differentiated mouse podocytes treated with either R-PE (control) or IREVEDEC (SEQ ID NO: 9) peptides. The recording electrode contained free Ca^2+ of 5 μM and currents are evoked by a series of depolarizing steps from a holding potential of −60 mV. Representative whole-cell current traces are shown above bar graphs Left: R-PE control (Ctrl); Right: IREVEDEC (SEQ ID NO: 9) peptides. […] Asterisk indicates p<0.05.
# as §1
# Whole cell recordings were performed in HEK293T transiently expressing different Slo1 constructs using standard methods. […]
# [2] = system: heterologously and endogenously expressed Slo1 channels; experiment: Intracellular delivery of VEDEC-motif peptides, surface expression of Slo1 channels (summary statement); conditions: intracellular delivery of peptide
sequence,measurement,setting,value
"IREVEDEC (Octopetide modulator of Calcium activated Potassium channels) [NH2-IREVEDEC-COOH, octopeptide containing the VEDEC motif, synthesized by Peptide 2.0]",total expression of Slo1VEDEC,Slo1VEDEC,no effect
same,surface expression of Slo1VEDEC,Slo1VEDEC; densitometry of immunoblots,increases
same,surface expression of Slo1QEERL,Slo1QEERL,no effect
same,total expression of Slo1QEERL,Slo1QEERL,no effect
same,current through Ca2+-activated K+ channels (current density at +60 mV),"[1]; differentiated mouse podocytes, 3 mg octopeptide with PULSin, electrode free Ca2+ 5 μM, vs R-PE control, n=33 cells, p<0.05",large increase
same,activation or deactivation kinetics of macroscopic currents,"[1]; mouse podocytes, whole-cell recording, data not shown",does not alter
same,surface expression of heterologously and endogenously expressed Slo1 (BKCa) channels,[2],increase
